Converted amounts (≈) assume the structure as drawn. The source made the active and inactive calls. The rule behind the calls is not given here.
Key:
[1] = Cmax in Wistar rat total plasma at 1 mg/kg, po by HPLC-MS/MS analysis; assay type: ADME, organism-based; set-up: dose 1 mg/kg, route po
[2] = Bioavailability in Wistar rat total plasma at 1 mg/kg, iv by HPLC-MS/MS analysis; assay type: ADME, organism-based
[3] = Ratio of drug level in brain to plasma in Wistar rat at 1 mg/kg, iv by HPLC-MS/MS analysis; assay type: ADME, organism-based; details: brain and plasma, read-out: BPR
[4] = Thermodynamic solubility of the compound at pH 5; assay type: physicochemical; details: buffer, read-out: Therm_solubility
[5] = Plasma protein binding in dog; assay type: ADME, cell-free, Canis lupus familiaris; details: read-out: PPB (converted)
Rattus norvegicus [6] = experiment: Pro-cognitive activity in po dosed subchronic PCP-induced cognitive impairment associated schizophrenia Wistar rat model assessed as reversal of PCP-induced cognitive deficit administered 30 mins prior to T1 phase by NOR test; assay type: functional; details: 0.5 h, read-out: MED
[7] = Cardiovascular toxicity in po dosed dog assessed as NOAEL; assay type: organism-based, Canis lupus familiaris; details: in vivo
[8] = Toxicity in po dosed Wistar rat assessed NOAEL by 4 days toxicology study; assay type: organism-based; details: in vivo, time 4 day
Rattus norvegicus [9] = experiment: Pro-cognitive activity in neonatal PCP-impaired social recognition Wistar rat model assessed as time spent in recognition of new juveniles at 10 mg/kg, po administered 30 min before acquisition by social recognition test; assay type: functional, organism-based

In the case of `Cc1onc(-c2ccc(F)cc2)c1COc1ccc2c(n1)CCN(C(=O)CS(C)(=O)=O)C2`, the Cmax [1] is reported as 115 ng/mL, the bioavailability [2] is reported as 35.8% and the Kp [3] is reported as 0.54. It also gave a solubility thermodynamic [4] of 142 µM (≈ 65.2 µg/mL), a fraction unbound [5] of 0.05 and a minimal effective dose (Rattus norvegicus [6]) of 3 mg/kg. For the same compound, the NOAEL [7] was no less than 70 mg/kg, the NOAEL at 96 h [8] was no less than 500 mg/kg and the Activity (Rattus norvegicus [9]) was “Active”.
